Results published in patent publication US20060116316A1, “Heterocyclic inhibitors of IRES-mediated translation and methods of use thereof” (priority 2004, published 2006).
Where a SMILES comes first, the peptide text is derived from it.

Tested on: HCV IRES
Test: HCV IRES reporter FACS assay (GFP expression ratio, intein-expressed cyclic peptides)
Assay type: cell-based, Hepatitis C virus
Details: ratio at least 1.20 = significant activity
Text: [The source words this procedure for another variant and says it was used here with some conditions changed.] Cells producing libraries of cyclic 3-mers and 4-mers (i.e., libraries of cyclic peptides that contain 3 or 4 amino acid residues) were constructed using methods identical to those of Kinsella et al (J Biol. Chem. 2002 277:37512-8), except different oligonucleotides were used for library construction. Clones from this library were screened in an assay shown in FIG. 2 to identify IRES-inhibitory compounds.
In summary, separate cyclic 3-mer and cyclic 4-mer libraries were constructed such that each peptide of the library contained a fixed Ser, Thr or Cys residue (at position 1) and the remaining residues were randomized. For library construction, degenerate oligonucleotides of sequence 5′-[…](AGC/ACC/TGC)(NNK)2 or 3 TGCATCAGCGGCGACAG-3′ were annealed to the primer 5′-[…]-3′ and extended using the Expand PCR kit (Roche Molecular Biochemicals). The double-stranded DNA insert was digested and inserted into the BclI/DrdI sites of DnaBO-e-BFP (ACUC). The plasmid libraries were electroporated into ElectroMAX DH 10B competent E. coli (Invitrogen) for amplification on LB+amp agar medium. […] Expression of the intein is detected by detecting BFP expression. Expression of the intein (and the cyclic peptide produced by the intein) is suppressible by addition of exogenous doxycycline. The amino acid sequence of the junctions of the intein scaffold used in making the 3-mer library is Val-His-Asn-X3 or 4-Cys-Ile-Ser, where X3 or 4 are three or four contiguous amino acids.
Infectious retroviral particles were produced by transfection of 15 µg of each library (as described in Swift et al, (1999). Current Protocols in Immunology Vol. 10.17C, pp. 1-17, Freeman, N.Y.) into approximately 5×10^6 Phoenix-A packaging cells. Each resulting library of retroviral particles was then used to infect 5×10^6 BJAB-S3A11 reporter cells and a FACS based selection was carried out to isolate cells with reduced HCV-IRES reporter output.
In detail, referring to FIG. 2, the cells used in the assay contained an IRES-dependent reporter system. […]. Also present in the cells is a control reporter system for assaying the activity of 5′ cap-dependent translation (the mechanism by which most cellular proteins are normally translated). The control reporter system contains a CMV promoter that drives the transcription of an RNA containing 5′ cap-dependent UTR, operably linked to an RNA encoding RFP (red fluorescent protein). Translation of RFP is dependent on the activity of the 5′ cap-dependent UTR.
Cells containing both the cyclic compound library and the reporter systems described above were first screened for survival upon exposure to diptheria toxin, and then screened by FACS to identify cells that had reduced GFP expression, as compared to RFP expression. Cells were expanded and replica-plated and grown in the presence or absence of dox (100 ng/ml) for four days. Plates were stimulated with IL-4 and GFP expression (relative to RFP) was monitored by flow cytometry. The IRES-inhibitory activity of a peptide is evaluated by calculating the ratio of the geometric mean of GFP expression of peptide positive cells (“peptide pos+” cells i.e., cells not contacted with dox) to the geometric mean of GFP expression of peptide negative cells (“peptide pos−” cells i.e., cells contacted with dox).
Cyclic peptides assigned higher scores have a greater IRES-inhibitory activity.
The number shown in parentheses after each of the amino acid sequences is the IRES-inhibitory activity ratio, as discussed above.

[1] = BJAB-S3A11 reporter cells, +/- dox 100 ng/ml four days, library intein junction Val-His-Asn-X1X2X3-Cys-Ile-Ser

Row | SMILES | IRES-inhibitory activity ratio (geometric mean GFP expression, peptide positive cells / peptide negative cells) [1] | IRES-inhibitory activity ratio (geometric mean GFP expression, peptide positive cells / peptide negative cells) (4-mers from mutant intein scaffold, junction Val-His-Asn-X1X2X3X4-Cys-Ser)
1 | CSCC[C@@H]1NC(=O)[C@H]([C@@H](C)O)NC(=O)[C@H](Cc2ccccc2)NC1=O [cyclo-TMF, cyclo[TMF]] (cyclo(Phe-Thr-Met)) | 1.37 | –
2 | CSCC[C@@H]1NC(=O)[C@H]([C@@H](C)O)NC(=O)[C@H](C(C)C)NC1=O [cyclo-TMV, cyclo[TMV]] (cyclo(Met-Val-Thr)) | 1.56 | –
3 | CSCC[C@@H]1NC(=O)[C@H]([C@@H](C)O)NC(=O)[C@H](Cc2c[nH]c3ccccc23)NC1=O [cyclo-TMW, cyclo[TMW]] (cyclo(Met-Trp-Thr)) | 2.1 | –
4 | C[C@@H](O)[C@@H]1NC(=O)[C@H](Cc2c[nH]c3ccccc23)NC(=O)[C@H](CC(N)=O)NC1=O [cyclo-TQW, cyclo[TQW]] | 1.7 | –
5 | C[C@@H](O)[C@@H]1NC(=O)[C@H](Cc2c[nH]c3ccccc23)NC(=O)[C@H](CO)NC1=O [cyclo-TSW, cyclo[TSW]] (cyclo(Ser-Trp-Thr)) | 1.25 | –
6 | C[C@@H](O)[C@@H]1NC(=O)[C@H](CCCNC(=N)N)NC(=O)[C@H](Cc2ccccc2)NC(=O)[C@H](Cc2c[nH]c3ccccc23)NC1=O [cyclo-TWFR, cyclo[TWFR]] (cyclo(FRTW)) | – | 1.56
7 | C[C@@H](O)[C@@H]1NC(=O)[C@H](Cc2c[nH]c3ccccc23)NC(=O)[C@H](Cc2ccc(O)cc2)NC1=O [cyclo-TYW, cyclo[TYW]] (cyclo(Thr-Tyr-Trp)) | 2.23 | –
